Read-outs that look alike come from different tables or passages of the source.
Experiments:
[1] = target: T1, 5HT2B receptors (Homo sapiens, UniProt P41595); assay: Human 5-HT2B functional assay in CHO-K1 cells (calcium flux, FLIPR); assay type: cell-based
T1 construct: expressed in transfected cells; host or cells: CHO-K1 cells
Outline: (§1)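 EC50 came from a 4-parameter logistic fit, with Emax expressed relative to serotonin, of intracellular Ca2+ rises read on FLIPR at 480/530 nm, 25° C, over 3 min. Compounds ran from 10 μM in six 1:10 steps (0.2% DMSO) on serum-starved CHO-K1 transfectants pre-loaded 60 min with Ca4 dye and probenecid.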

[2] = target: T2, 5HT2C receptors (Homo sapiens, UniProt P28335); assay: Human 5-HT2C functional assay in CHO-K1 cells (calcium flux, FLIPR); assay type: cell-based; parameters: expressed in transfected cells; host or cells: CHO-K1 cells; conditions: for Emax: percentage relative to the effect of serotonin
T2 sequence (P28335 33-458): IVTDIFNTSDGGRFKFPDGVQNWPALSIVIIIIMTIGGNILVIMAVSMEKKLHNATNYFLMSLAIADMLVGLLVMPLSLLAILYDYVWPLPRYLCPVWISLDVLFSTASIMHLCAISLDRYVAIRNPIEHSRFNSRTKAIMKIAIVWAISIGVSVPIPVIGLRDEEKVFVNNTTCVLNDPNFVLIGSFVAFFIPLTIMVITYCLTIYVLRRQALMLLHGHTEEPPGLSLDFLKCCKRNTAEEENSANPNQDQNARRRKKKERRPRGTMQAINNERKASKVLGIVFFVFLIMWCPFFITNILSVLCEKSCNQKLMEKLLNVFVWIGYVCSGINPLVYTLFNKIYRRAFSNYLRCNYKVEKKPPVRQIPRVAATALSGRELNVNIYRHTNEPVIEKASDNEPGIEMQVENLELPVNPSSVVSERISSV
Outline: as §1

[3] = CHO-K1, read-out: Emax (%), 5-HT2B Agonist Activity
[4] = CHO-K1, read-out: Emax (%), 5-HT2c Agonist Activity, CHO-K1 cells
[5] = CHO-K1 cells over-expressing 5HT2B, calcium flux, read-out: EC50 (μM), 5-HT2B Agonist Activity
[6] = CHO-K1 cells over-expressing 5HT2C, calcium flux, read-out: EC50 (μM), 5-HT2c Agonist Activity
[7] = CHO-K1 cells, read-out: Emax (%), 5-HT2c Agonist Activity
[8] = CHO-K1 cells, percentage relative to the effect of serotonin, read-out: Emax (%), 5-HT2B Agonist Activity

T1 sequence (P41595 whole entry): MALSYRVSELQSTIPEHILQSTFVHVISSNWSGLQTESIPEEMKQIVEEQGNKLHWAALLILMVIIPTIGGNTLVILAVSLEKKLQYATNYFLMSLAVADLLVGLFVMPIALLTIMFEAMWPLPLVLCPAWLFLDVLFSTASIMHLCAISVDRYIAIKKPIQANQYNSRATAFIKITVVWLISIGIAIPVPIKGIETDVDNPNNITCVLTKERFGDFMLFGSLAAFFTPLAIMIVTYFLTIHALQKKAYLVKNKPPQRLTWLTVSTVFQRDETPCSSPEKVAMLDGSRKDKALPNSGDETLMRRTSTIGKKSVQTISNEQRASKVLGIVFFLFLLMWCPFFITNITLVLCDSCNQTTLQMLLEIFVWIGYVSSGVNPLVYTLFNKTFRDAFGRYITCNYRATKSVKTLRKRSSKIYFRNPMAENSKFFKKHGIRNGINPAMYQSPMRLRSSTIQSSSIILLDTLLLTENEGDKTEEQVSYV

SMILES | EC50 [1, 5] [µM] | EC50 [2, 6] [µM] | Emax [2, 7] [%] | Emax [1, 8] [%] | EC50 [1] [µM] | Emax [1, 3] [%] | EC50 [2] [µM] | Emax [2, 4] [%]
Fc1cccc2c1OCC[C@H]1CNCCN21 [Example 139, (4aS)-8-fluoro-2,3,4,4a,5,6-hexahydro-1H-pyrazino[2,1-d][1,5]benzoxazepine] |  |  |  |  | 0.06 | 20 | 0.0004 | > 120
Clc1ccc2c(c1)N1CCNC[C@@H]1CCO2 [Example 140, (4aS)-10-chloro-2,3,4,4a,5,6-hexahydro-1H-pyrazino[2,1-d][1,5]-benzoxazepine] |  |  |  |  | 0.03 | 60 | 0.0005 | > 120
O=C1CC2CNCCN2c2cc(/C=C/c3ccccc3C(F)(F)F)ccc2N1 (centres unmarked) [Example 142, 10-{(E)-2-[2-(trifluoromethyl)phenyl]vinyl}-1,2,3,4,4a,5-hexahydropyrazino[1,2-a][1,5]benzodiazepin-6(7H)-one] | > 10 | 0.08 | > 120 |  |  |  |  | 
O=C1CC2CNCCN2c2cc(/C=C/c3cc(F)cc(F)c3)ccc2N1 (centres unmarked) [Example 143, 10-[(E)-2-(3,5-difluorophenyl)vinyl]-1,2,3,4,4a,5-hexahydropyrazino[1,2-a][1,5]benzodiazepin-6(7H)-one] | 1 | 0.02 | > 120 | 60 |  |  |  | 
O=C1CC2CNCCN2c2cc(CCc3ccccc3F)ccc2N1 (centres unmarked) [Example 144, 10-[2-(2-fluorophenyl)ethyl]-1,2,3,4,4a,5-hexahydropyrazino[1,2-a][1,5]benzodiazepin-6(7H)-one] | > 10 | 0.002 | > 120 | 50 |  |  |  | 
O=C1CC2CNCCN2c2cc(CCc3cccc(F)c3)ccc2N1 (centres unmarked) [Example 145, 10-[2-(3-fluorophenyl)ethyl]-1,2,3,4,4a,5-hexahydropyrazino[1,2-a][1,5]benzodiazepin-6(7H)-one] | > 10 | 0.006 | > 120 |  |  |  |  | 
O=C1CC2CNCCN2c2cc(CCc3ccccc3C(F)(F)F)ccc2N1 (centres unmarked) [Example 146, 10-{2-[2-(trifluoromethyl)phenyl]ethyl}-1,2,3,4,4a,5-hexahydropyrazino[1,2-a][1,5]benzodiazepin-6(7H)-one] | > 10 | 0.005 | > 120 |  |  |  |  | 
O=C1CC2CNCCN2c2cc(CCc3cc(F)cc(F)c3)ccc2N1 (centres unmarked) [Example 147, 10-[2-(3,5-difluorophenyl)ethyl]-1,2,3,4,4a,5-hexahydropyrazino[1,2-a][1,5]benzodiazepin-6(7H)-one] | > 10 | 0.01 | > 120 |  |  |  |  | 
O=C1C[C@H]2CNCCN2c2cccc(Cl)c2N1 [Example 148, (4aS)-8-chloro-1,2,3,4,4a,5-hexahydropyrazino[1,2-a][1,5]benzodiazepin-6(7H)-one] |  |  |  |  | > 10 |  | 0.007 | > 120
O=C1CC2CNCCN2c2ncccc2N1 (centres unmarked) [Example 150, 7,7a,8,9,10,11-hexahydropyrazino[1,2-d]pyrido[3,2-b][1,4]diazepin-6(5H)-one] | > 10 | 0.2 |  |  |  |  |  | > 120
CN1C(=O)CC2CNCCN2c2cc(CCc3ccccc3)ccc21 (centres unmarked) [Example 151, 7-methyl-10-(2-phenylethyl)-1,2,3,4,4a,5-hexahydropyrazino[1,2-a][1,5]benzodiazepin-6(7H)-one] | 5 | 0.07 | 110 | 30 |  |  |  | 
O=C1CC2CNCCN2c2cc(OCCc3cccc(F)c3)ccc2N1 (centres unmarked) [Example 152, 10-[2-(3-fluorophenyl)ethoxy]-1,2,3,4,4a,5-hexahydropyrazino[1,2-a][1,5]benzodiazepin-6(7H)-one] | > 10 | 0.01 | 100 |  |  |  |  | 
O=C1CC2CNCCN2c2cc(OCc3cccc(F)c3)ccc2N1 (centres unmarked) [Example 156, 10-[(3-fluorobenzyl)oxy]-1,2,3,4,4a,5-hexahydropyrazino[1,2-a][1,5]benzodiazepin-6(7H)-one] | 0.35 | 0.0059 | > 120 | 77 |  |  |  | 

Continued, in another order:

EC50 [1, 5] [µM] | EC50 [2, 6] [µM] | Emax [2, 7] [%] | Emax [1, 8] [%] | SMILES | EC50 [1] [µM] | Emax [1, 3] [%] | EC50 [2] [µM] | Emax [2, 4] [%]
1 | 0.02 | > 120 | 30 | O=C1CC2CNCCN2c2cc(OCc3ccccc3)ccc2N1 (centres unmarked) [Example 149, 10-(benzyloxy)-1,2,3,4,4a,5-hexahydropyrazino[1,2-a][1,5]benzodiazepin-6(7H)-one] |  |  |  | 
0.1 | 0.01 | 110 | 20 | C[C@@H](Oc1ccc2c(c1)N1CCNCC1CC(=O)N2)c1ccccc1 (stereo partly drawn) [Example 153, 10-[(1R)-1-phenylethoxy]-1,2,3,4,4a,5-hexahydropyrazino[1,2-a][1,5]benzodiazepin-6(7H)-one] |  |  |  | 
0.7 | 0.103 | > 120 | 44 | C[C@H](Oc1ccc2c(c1)N1CCNCC1CC(=O)N2)c1ccccc1 (stereo partly drawn) [Example 154, 10-[(1S)-1-phenylethoxy]-1,2,3,4,4a,5-hexahydropyrazino[1,2-a][1,5]benzodiazepin-6(7H)-one] |  |  |  | 
> 10 | 0.0384 | > 120 |  | O=C1CC2CNCCN2c2cc(OCc3ccccc3F)ccc2N1 (centres unmarked) [Example 155, 10-[(2-fluorobenzyl)oxy]-1,2,3,4,4a,5-hexahydropyrazino[1,2-a][1,5]benzodiazepin-6(7H)-one] |  |  |  | 
> 10 | 0.0295 | > 120 |  | O=C1CC2CNCCN2c2cc(OCc3ccccc3C(F)(F)F)ccc2N1 (centres unmarked) [Example 157, 10-{[2-(trifluoromethyl)benzyl]oxy}-1,2,3,4,4a,5-hexahydropyrazino[1,2-a][1,5]benzodiazepin-6(7H)-one] |  |  |  | 
> 10 | 0.025 | > 120 |  | O=C1CC2CNCCN2c2cc(OCCc3ccccc3)ccc2N1 (centres unmarked) [Example 158, 10-(2-phenylethoxy)-1,2,3,4,4a,5-hexahydropyrazino[1,2-a][1,5]benzodiazepin-6(7H)-one] |  |  |  | 
> 10 | 0.00402 | > 120 |  | C[C@H](Cc1ccccc1)Oc1ccc2c(c1)N1CCNCC1CC(=O)N2 (stereo partly drawn) [Example 159, 10-{[(2R)-1-phenylpropan-2-yl]oxy}-1,2,3,4,4a,5-hexahydropyrazino[1,2-a][1,5]benzodiazepin-6(7H)-one] |  |  |  | 
> 10 | 0.0797 | > 120 |  | C[C@@H](Cc1ccccc1)Oc1ccc2c(c1)N1CCNCC1CC(=O)N2 (stereo partly drawn) [Example 160, 10-{[(2S)-1-phenylpropan-2-yl]oxy}-1,2,3,4,4a,5-hexahydropyrazino[1,2-a][1,5]benzodiazepin-6(7H)-one] |  |  |  | 
1 | 0.01 | 120 | 20 | C[C@@H](Oc1ccc2c(c1)N1CCNCC1CC(=O)N2)c1ccccc1F (stereo partly drawn) [Example 161, 10-[(1R)-1-(2-fluorophenyl)ethoxy]-1,2,3,4,4a,5-hexahydropyrazino[1,2-a][1,5]benzodiazepin-6(7H)-one] |  |  |  | 
1 | 0.07 | > 120 | 20 | C[C@H](Oc1ccc2c(c1)N1CCNCC1CC(=O)N2)c1ccccc1F (stereo partly drawn) [Example 162, 10-[(1S)-1-(2-fluorophenyl)ethoxy]-1,2,3,4,4a,5-hexahydropyrazino[1,2-a][1,5]benzodiazepin-6(7H)-one] |  |  |  | 
> 10 | 0.07 | > 120 |  | C[C@@H](Cc1ccccc1)Oc1ccc2c(c1)N1CCNC[C@@H]1CC(=O)N2 [Example 163, (4aS)-10-{[(2S)-1-phenylpropan-2-yl]oxy}-1,2,3,4,4a,5-hexahydropyrazino[1,2-a][1,5]benzodiazepin-6(7H)-one] |  |  |  | 
